# Test results as given in article PMC12113356, “Novel Anti-MRSA Peptide from Mangrove-Derived Virgibacillus chiguensis FN33 Supported by Genomics and Molecular Dynamics” (Marine Drugs, 2025).
# Read-outs that look alike come from different tables or passages of the source. Peptide text beside a SMILES is read from it.
# How the values were obtained:
# [1] = system: MRSA strain 2468; assay: Compatibility with surfactants (activity retention by agar well diffusion); format: physicochemical, Staphylococcus aureus; settings: 32 µg/mL, agar well diffusion read-out, % of untreated sample, mean ± SD, n = 3
# Description: (§1) The AMP solution was prepared in sterile purified water and adjusted to a final concentration of 32 µg/mL. To determine thermal stability, the AMP was exposed to temperatures of 30, 40, 60, 80, and 100 °C, as well as to autoclaving at 121 °C and 15 psi for 15 and 30 min. The susceptibility of the AMP to enzymatic degradation was examined by treating it with proteinase K, trypsin, and α-chymotrypsin (each at 1 mg/mL, Sigma-Aldrich, Warren, MI, USA), representing different proteolytic mechanisms. The AMP’s compatibility with surfactants was assessed by incubating it with 1% SDS, 1% CTAB, and 1% Triton X-100 (AppliChem GmbH, Darmstadt, Germany). Additionally, the effect of pH variations on AMP integrity was tested by adjusting the solution to pH 1, 4, 8, 10, and 14. The pH was neutralized to the original pH after incubation before conducting antibacterial activity tests. […] Stability data were expressed as residual activity percentages relative to the untreated sample (mean ± SD), and statistical significance was evaluated using two-way ANOVA and Tukey’s post hoc test, with a p-value < 0.05 considered significant.
# [2] = molecular target: T1, proteinase K (Parengyodontium album, UniProt P06873); assay: Stability to protease digestion (activity retention); format: in vitro ADME; settings: 32 µg/mL, proteinase K 1 mg/mL, agar well diffusion read-out vs MRSA strain 2468, % of untreated sample, mean ± SD, n = 3
# T1 construct: purchased Sigma-Aldrich
# Description: as §1
# [3] = molecular target: T2, α-chymotrypsin (Bos taurus, UniProt P00766); assay: as above; format: in vitro ADME; settings: 32 µg/mL, α-chymotrypsin 1 mg/mL, agar well diffusion read-out vs MRSA strain 2468, % of untreated sample, mean ± SD, n = 3
# T2 construct: purchased Sigma-Aldrich
# Description: as §1
# [4] = system: MRSA strain 2468; assay: Stability to pH variation (activity retention by agar well diffusion); format: physicochemical, Staphylococcus aureus; settings: 32 µg/mL, neutralized before test, agar well diffusion read-out, % of untreated sample, mean ± SD, n = 3
# Description: as §1
# [5] = system: trypsin; format: in vitro ADME; settings: 32 µg/mL, trypsin 1 mg/mL, agar well diffusion read-out vs MRSA strain 2468, % of untreated sample, mean ± SD, n = 3
# Description: as §1
# [6] = system: egg albumin; assay: Albumin denaturation assay (in vitro anti-inflammatory); format: biochemical, hen; settings: PBS pH 7.2, 37 °C 15 min then 70 °C 5 min, OD 660 nm, mean ± SD, n = 3
# Description: The reaction mixture consisted of 25 μL of egg albumin (derived from fresh hen eggs), 350 μL of PBS (pH 7.2, 0.1 M), and 250 μL of AMP or PBS (used as a reference). The mixtures were pre-incubated at 37 °C for 15 min, followed by denaturation at 70 °C for 5 min. After a 5 min cooling period on ice, the optical density (OD) at 660 nm was measured using a spectrophotometer. […] The percentage inhibition of albumin denaturation was calculated using the following equation:Inhibition of albumin denaturation (%) = [1 − (Absorbancesample/Absorbancecontrol)] × 100
# [7] = system: MRSA strain 2468; assay: Time-kill assay; format: cell-based, Staphylococcus aureus; settings: for bacterial reduction rate: triplicate
# Description: (§2) The time–kill assay of FN33 AMP was conducted by measuring bacterial viability (log CFU/mL) at different time points. […] In the untreated group, bacterial growth increased over time, with a growth rate of 0.292 log CFU/h for S. aureus TISTR 517 and 0.2884 log CFU/h for MRSA strain 2468. […] However, complete eradication of S. aureus TISTR 517 was not achieved at either concentration, even after 24 h of treatment. […] The bactericidal effect was confirmed by complete eradication within 20 h of treatment. […] The killing rate against MRSA strain 2468 was faster than that observed for S. aureus TISTR 517 at all concentrations.
# (§3) Error bars represent the standard deviation of triplicate experiments.
# [8] = system: S. aureus TISTR 517; assay: Time-kill assay; format: cell-based, Staphylococcus aureus; settings: for bacterial reduction rate: triplicate
# Description: as §2, §3
# [9] = DPPH radical-scavenging assay; settings: 0.1 mM DPPH, 25 °C, 30 min in darkness, absorbance 517 nm; mean ± SD, n = 3
# Description: A 200 μL sample or ascorbic acid (Gammaco Ltd., Bangkok, Thailand) was added to 2 mL of 0.1 mM DPPH solution (Merck Ltd., Bangkok, Thailand) and incubated at 25 °C in darkness for 30 min. The DPPH color change from purple to pale yellow was observed, and the absorbance at 517 nm was measured using a UV–visible spectrophotometer.
# T1 sequence (P06873 106-384): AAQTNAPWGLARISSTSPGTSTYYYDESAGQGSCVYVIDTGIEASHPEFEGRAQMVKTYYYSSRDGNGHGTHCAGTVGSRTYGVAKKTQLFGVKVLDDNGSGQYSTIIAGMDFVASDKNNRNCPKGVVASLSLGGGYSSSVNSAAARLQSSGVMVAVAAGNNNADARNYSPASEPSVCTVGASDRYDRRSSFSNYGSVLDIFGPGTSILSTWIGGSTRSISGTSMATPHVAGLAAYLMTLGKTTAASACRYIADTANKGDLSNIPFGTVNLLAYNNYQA
smiles,measurement,setting,value
CC(C)C[C@H](NC(=O)[C@H](CC(=O)O)NC(=O)[C@H](CS)NC(=O)[C@H](Cc1c[nH]cn1)NC(=O)[C@H](CS)NC(=O)[C@@H]1CCCN1C(=O)[C@@H](NC(=O)[C@H](CC(C)C)NC(=O)[C@H](CS)NC(=O)CNC(=O)[C@H](Cc1c[nH]c2ccccc12)NC(=O)[C@@H](NC(=O)[C@H](CC(=O)O)NC(=O)[C@@H](NC(=O)CNC(=O)[C@H](CS)NC(=O)CNC(=O)CNC(=O)[C@@H](N)CCC(=O)O)C(C)C)[C@@H](C)O)[C@@H](C)O)C(=O)N[C@@H](Cc1ccccc1)C(=O)N[C@@H](CS)C(=O)N[C@H](C(=O)N[C@H](C(=O)O)[C@@H](C)O)[C@@H](C)O [FN33 AMP] (H-EGGCGVDTWGCLTPCHCDLFCTT-OH),Antibacterial Activity Retention of FN33 AMP (%) Against MRSA Strain 2468,"[1]; with CTAB 1% w/v, 1 h",93.19 ± 0.52 %
same,Antibacterial Activity Retention of FN33 AMP (%) Against MRSA Strain 2468,"[1]; with CTAB 1% w/v, 6 h",93.17 ± 0.48 %
same,Antibacterial Activity Retention of FN33 AMP (%) Against MRSA Strain 2468,"[1]; with CTAB 1% w/v, 12 h","92.51 ± 0.69 *^,† %"
same,Antibacterial Activity Retention of FN33 AMP (%) Against MRSA Strain 2468,"[1]; with SDS 1% w/v, 1 h",117.08 ± 0.78 %
same,Antibacterial Activity Retention of FN33 AMP (%) Against MRSA Strain 2468,"[1]; with SDS 1% w/v, 6 h",117.39 ± 0.96 %
same,Antibacterial Activity Retention of FN33 AMP (%) Against MRSA Strain 2468,"[1]; with SDS 1% w/v, 12 h",115.95 ± 0.57 %
same,Antibacterial Activity Retention of FN33 AMP (%) Against MRSA Strain 2468,"[1]; with Triton X-100 1% w/v, 1 h",81.23 ± 1.04 %
same,Antibacterial Activity Retention of FN33 AMP (%) Against MRSA Strain 2468,"[1]; with Triton X-100 1% w/v, 6 h",81.69 ± 0.38 %
same,Antibacterial Activity Retention of FN33 AMP (%) Against MRSA Strain 2468,"[1]; with Triton X-100 1% w/v, 12 h",81.30 ± 0.72 %
same,Antibacterial Activity Retention of FN33 AMP (%) Against MRSA Strain 2468,[2]; 1 h,0.00 ± 0.00 %
same,Antibacterial Activity Retention of FN33 AMP (%) Against MRSA Strain 2468,[2]; 6 h,0.00 ± 0.00 %
same,Antibacterial Activity Retention of FN33 AMP (%) Against MRSA Strain 2468,[2]; 12 h,0.00 ± 0.00 %
same,Antibacterial Activity Retention of FN33 AMP (%) Against MRSA Strain 2468,[3]; 1 h,0.00 ± 0.00 %
same,Antibacterial Activity Retention of FN33 AMP (%) Against MRSA Strain 2468,[3]; 6 h,0.00 ± 0.00 %
same,Antibacterial Activity Retention of FN33 AMP (%) Against MRSA Strain 2468,[3]; 12 h,0.00 ± 0.00 %
same,Antibacterial Activity Retention of FN33 AMP (%) Against MRSA Strain 2468,"[4]; pH 1, 1 h",74.56 ± 0.69 %
same,Antibacterial Activity Retention of FN33 AMP (%) Against MRSA Strain 2468,"[4]; pH 1, 6 h",76.51 ± 0.39 %
same,Antibacterial Activity Retention of FN33 AMP (%) Against MRSA Strain 2468,"[4]; pH 1, 12 h","72.85 ± 0.22 *^,† %"
same,Antibacterial Activity Retention of FN33 AMP (%) Against MRSA Strain 2468,"[4]; pH 4, 1 h",97.42 ± 0.65 %
same,Antibacterial Activity Retention of FN33 AMP (%) Against MRSA Strain 2468,"[4]; pH 4, 6 h",96.19 ± 0.21 %
same,Antibacterial Activity Retention of FN33 AMP (%) Against MRSA Strain 2468,"[4]; pH 4, 12 h","95.30 ± 0.69 *^,† %"
same,Antibacterial Activity Retention of FN33 AMP (%) Against MRSA Strain 2468,"[4]; pH 8, 1 h",99.53 ± 0.41%
same,Antibacterial Activity Retention of FN33 AMP (%) Against MRSA Strain 2468,"[4]; pH 8, 6 h",98.03 ± 0.65%
same,Antibacterial Activity Retention of FN33 AMP (%) Against MRSA Strain 2468,"[4]; pH 8, 12 h",98.76 ± 0.81%
same,Antibacterial Activity Retention of FN33 AMP (%) Against MRSA Strain 2468,"[4]; pH 10, 1 h",74.63 ± 0.79 %
same,Antibacterial Activity Retention of FN33 AMP (%) Against MRSA Strain 2468,"[4]; pH 10, 6 h","73.12 ± 1.04 *^,† %"
same,Antibacterial Activity Retention of FN33 AMP (%) Against MRSA Strain 2468,"[4]; pH 10, 12 h","69.46 ± 0.77 *^,† %"
same,Antibacterial Activity Retention of FN33 AMP (%) Against MRSA Strain 2468,"[4]; pH 14, 1 h",68.58 ± 0.45 %
same,Antibacterial Activity Retention of FN33 AMP (%) Against MRSA Strain 2468,"[4]; pH 14, 6 h","66.80 ± 0.27 *^,† %"
same,Antibacterial Activity Retention of FN33 AMP (%) Against MRSA Strain 2468,"[4]; pH 14, 12 h","65.80 ± 0.84 *^,† %"
same,Antibacterial Activity Retention of FN33 AMP (%) Against MRSA Strain 2468,[5]; 1 h,99.60 ± 0.6%
same,Antibacterial Activity Retention of FN33 AMP (%) Against MRSA Strain 2468,[5]; 6 h,98.82 ± 0.67%
same,Antibacterial Activity Retention of FN33 AMP (%) Against MRSA Strain 2468,[5]; 12 h,99.04 ± 1.02%
same,% Inhibition of Albumin Denaturation,[6]; 50 µg/mL,"4.85 ± 0.93 *^,† %"
same,% Inhibition of Albumin Denaturation,[6]; 100 µg/mL,"17.75 ± 0.97 *^,† %"
same,% Inhibition of Albumin Denaturation,[6]; 250 µg/mL,34.39 ± 1.82 %
same,% Inhibition of Albumin Denaturation,[6]; 500 µg/mL,57.16 ± 1.06 %
same,bacterial reduction rate,[7]; 1× MIC,0.1519 log CFU/h
same,time to eradication (no detectable bacterial counts),[7]; 2× MIC,≤ 20 h
same,bacterial reduction rate,[7]; 2× MIC,0.2498 log CFU/h
same,time to eradication (no detectable bacterial counts),[7]; 4× MIC,≤ 12 h
same,bacterial reduction rate,[7]; 4× MIC,0.4508 log CFU/h
same,bacterial reduction rate,"[8]; 1× MIC, up to 24 h",0.0496 log CFU/h
same,bacterial reduction rate,"[8]; 2× MIC, up to 24 h",0.1322 log CFU/h
same,time to complete eradication,[8]; 4× MIC,≤ 20 h
same,bacterial reduction rate,[8]; 4× MIC,0.2704 log CFU/h
same,IC50 (DPPH radical scavenging),[9],11.66 ± 2.87 µg/mL
